Laboratory results as given in patent publication US20240237649A1, “CRYSTALLINE FORMS OF 5-FLUORO-4-IMINO-3-METHYL-1-TOSYL-3,4-DIHYDROPYRIMIDIN-2-ONE, AND MIXTURES, COMPOSITIONS AND METHODS OF USE THEREOF” (Adama Makhteshim Ltd., priority 2021, published 2024).
One block for each molecule: values may come before it.

Assay: Chemical stability: concentration / degradation of compound of Formula I in compositions on storage
[1] = SC composition at pH 4, Table 12

- % Water Content (total water in the composition, including free water and water in the hydrate): 0.29%
Compound: Cc1ccc(S(=O)(=O)n2cc(F)c(=N)n(C)c2=O)cc1 [Hydrate I (45% Hydrate, and 55% Form I Polymorph)] [5-fluoro-4-imino-3-methyl-1-tosyl-3,4-dihydropyrimidin-2(1H)-one]

- stability in oil dispersion (OD) composition compared with suspension concentrate (SC) composition: more stable
Compound: Cc1ccc(S(=O)(=O)n2cc(F)c(=N)n(C)c2=O)cc1 [Form III, 5-fluoro-4-imino-3-methyl-1-tosyl-3,4-dihydropyrimidin-2(1H)-one]

Compound: Cc1ccc(S(=O)(=O)n2cc(F)c(=N)n(C)c2=O)cc1 [compound of Formula I, 5-fluoro-4-imino-3-methyl-1-tosyl-3,4-dihydropyrimidin-2(1H)-one]
- amount of the compound of Formula I in the composition, after decrease [1]: 31.1 % by weight based on the total weight of the composition
- amount of the compound of Formula I in the composition, before decrease [1]: 44.4 % by weight based on the total weight of the composition
